Experiments:
Type in all cases: in vivo
[1] = test system: Alopecurus myosuroides (ALOMY); experiment: Pre-emergence herbicidal glasshouse test on Alopecurus myosuroides; details: pre-emergence; 1000 g/h; evaluated after 13 days
How it was run: (§1)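 Herbicidal damage was rated 13 days after treatment on a five-point scale, where 5 denotes 80-100% and 1 denotes 0-19% damage. Spraying at 1000 g/h followed sowing by one day (pre-emergence) or eight days (post-emergence).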

[2] = test system: Echinochloa crus-galli (ECHCG); experiment: Pre-emergence herbicidal glasshouse test on Echinochloa crus-galli; details: pre-emergence; 1000 g/h; evaluated after 13 days
How it was run: as §1

[3] = test system: Echinochloa crus-galli (ECHCG); experiment: Post-emergence herbicidal glasshouse test on Echinochloa crus-galli; details: post-emergence; 1000 g/h; evaluated after 13 days
How it was run: as §1

Setaria faberi (SETFA) [4] = experiment: Pre-emergence herbicidal glasshouse test on Setaria faberi; details: pre-emergence; 1000 g/h; evaluated after 13 days
How it was run: as §1

[5] = test system: Ipomoea hederacea (IPOHE); experiment: Post-emergence herbicidal glasshouse test on Ipomoea hederacea; details: post-emergence; 1000 g/h; evaluated after 13 days
How it was run: as §1

[6] = test system: Ipomoea hederacea (IPOHE); experiment: Pre-emergence herbicidal glasshouse test on Ipomoea hederacea; details: pre-emergence; 1000 g/h; evaluated after 13 days
How it was run: as §1

[7] = test system: Amaranthus retoflexus (AMARE); experiment: Post-emergence herbicidal glasshouse test on Amaranthus retoflexus; details: post-emergence; 1000 g/h; evaluated after 13 days
How it was run: as §1

Setaria faberi (SETFA) [8] = experiment: Post-emergence herbicidal glasshouse test on Setaria faberi; details: post-emergence; 1000 g/h; evaluated after 13 days
How it was run: as §1

[9] = test system: Amaranthus retoflexus (AMARE); experiment: Pre-emergence herbicidal glasshouse test on Amaranthus retoflexus; details: pre-emergence; 1000 g/h; evaluated after 13 days
How it was run: as §1

Solanum nigrum (SOLNI) [10] = experiment: Pre-emergence herbicidal glasshouse test on Solanum nigrum; details: pre-emergence; 1000 g/h; evaluated after 13 days
How it was run: as §1

[11] = test system: Alopecurus myosuroides (ALOMY); experiment: Post-emergence herbicidal glasshouse test on Alopecurus myosuroides; details: post-emergence; 1000 g/h; evaluated after 13 days
How it was run: as §1

Solanum nigrum (SOLNI) [12] = experiment: Post-emergence herbicidal glasshouse test on Solanum nigrum; details: post-emergence; 1000 g/h; evaluated after 13 days
How it was run: as §1

| Structure (SMILES) | PRE Application ALOMY herbicidal damage (five point scale) [1] | PRE Application ECHCG herbicidal damage (five point scale) [2] | POST Application ECHCG herbicidal damage (five point scale) [3] | PRE Application SETFA herbicidal damage (five point scale) (Setaria faberi (SETFA) [4]) | POST Application IPOHE herbicidal damage (five point scale) [5] | PRE Application IPOHE herbicidal damage (five point scale) [6] | POST Application AMARE herbicidal damage (five point scale) [7] | POST Application SETFA herbicidal damage (five point scale) (Setaria faberi (SETFA) [8]) | PRE Application AMARE herbicidal damage (five point scale) [9] | PRE Application SOLNI herbicidal damage (five point scale) (Solanum nigrum (SOLNI) [10]) | POST Application ALOMY herbicidal damage (five point scale) [11] | POST Application SOLNI herbicidal damage (five point scale) (Solanum nigrum (SOLNI) [12]) |
| --- | --- | --- | --- | --- | --- | --- | --- | --- | --- | --- | --- | --- |
| Cc1nc(C(C)F)ccc1-c1cnn(C)c(=O)c1O (stereo not drawn) [Compound 1.068] | 2 (2=20-39% damage) | 5 (5=80-100% damage) | 5 (5=80-100% damage) | 2 (2=20-39% damage) | 5 (5=80-100% damage) | 3 (3=40-59% damage) | 5 (5=80-100% damage) | 3 (3=40-59% damage) | 4 (4=60-79% damage) | 4 (4=60-79% damage) | 3 (3=40-59% damage) | 5 (5=80-100% damage) |
| Cn1ncc(-c2c(Br)cccc2S(C)(=O)=O)c(O)c1=O [Compound 1.106] | 1 (1=0-19% damage) | 1 (1=0-19% damage) | 4 (4=60-79% damage) | 1 (1=0-19% damage) | 2 (2=20-39% damage) | 1 (1=0-19% damage) | 5 (5=80-100% damage) | 2 (2=20-39% damage) | 4 (4=60-79% damage) | 1 (1=0-19% damage) | 2 (2=20-39% damage) | 4 (4=60-79% damage) |
| COc1nc(C(F)(F)F)ccc1-c1cnn(C)c(=O)c1O [Compound 4.005] | 1 (1=0-19% damage) | 1 (1=0-19% damage) | 1 (1=0-19% damage) | 1 (1=0-19% damage) | 2 (2=20-39% damage) | 1 (1=0-19% damage) | 5 (5=80-100% damage) | 1 (1=0-19% damage) | 5 (5=80-100% damage) | 1 (1=0-19% damage) | 1 (1=0-19% damage) | 3 (3=40-59% damage) |
| Cn1ncc(-c2ccc(Cl)cc2Cl)c(O)c1=O [Compound 1.077] | 1 (1=0-19% damage) | 1 (1=0-19% damage) | 1 (1=0-19% damage) | 1 (1=0-19% damage) | 2 (2=20-39% damage) | 1 (1=0-19% damage) | 4 (4=60-79% damage) | 1 (1=0-19% damage) | 3 (3=40-59% damage) | 3 (3=40-59% damage) | 1 (1=0-19% damage) | 2 (2=20-39% damage) |
| COC(=O)Oc1c(-c2ccc(C(F)(F)F)cc2S(C)(=O)=O)cnn(C)c1=O [Compound 3.003, Methyl [2-methyl-5-[2-methylsulfonyl-4-(trifluoromethyl)phenyl]-3-oxo-pyridazin-4-yl]carbonate] | 5 (5=80-100% damage) | 5 (5=80-100% damage) | 5 (5=80-100% damage) | 5 (5=80-100% damage) | 5 (5=80-100% damage) | 5 (5=80-100% damage) | 5 (5=80-100% damage) | 5 (5=80-100% damage) | 5 (5=80-100% damage) | 5 (5=80-100% damage) | 5 (5=80-100% damage) | 5 (5=80-100% damage) |
